Data published in PMC9865363, “Identification of Human UDP-Glucuronosyltransferase Involved in Gypensapogenin C Glucuronidation and Species Differences” (International Journal of Molecular Sciences, 2023).

Tests used:
[1] = system: glucuronidation (GPCG formation); assay: GPC glucuronidation in mouse liver microsomes (enzyme kinetics, species comparison); details: ICR/CD-1, mouse, mouse liver microsomes, pH 7.4
[2] = as above; details: ICR/CD-1, mouse, mouse liver microsomes, pH 7.4
[3] = system: mouse liver microsomes (MLM); assay: as above; details: MLMs 0.2 mg/mL, GPC 2–200 μM, 30 min, substrate inhibition fit
[4] = system: rat liver microsomes (RLM); assay: GPC glucuronidation in rat liver microsomes (enzyme kinetics, species comparison); details: 30 min
[5] = system: glucuronidation (GPCG formation); assay: as above; details: Sprague-Dawley, rat, rat liver microsomes, pH 7.4
[6] = as above; details: Sprague-Dawley, rat, rat liver microsomes, pH 7.4
[7] = system: glucuronidation (GPCG formation); assay: GPC glucuronidation in monkey liver microsomes (enzyme kinetics, species comparison); details: monkey, monkey liver microsomes, pH 7.4
[8] = as above; details: monkey, monkey liver microsomes, pH 7.4
[9] = system: monkey liver microsomes (MkLM); assay: as above; details: 30 min
[10] = system: pig liver microsomes (PLM); assay: GPC glucuronidation in pig liver microsomes (enzyme kinetics, species comparison); details: 30 min
[11] = system: glucuronidation (GPCG formation); assay: as above; details: pig, pig liver microsomes, pH 7.4
[12] = as above; details: minipig, pig, pig liver microsomes, pH 7.4
[13] = system: human liver microsomes (HLMs); assay: GPC glucuronidation in human liver microsomes (enzyme kinetics, species comparison); details: 30 min
[14] = system: glucuronidation (GPCG formation); assay: as above; details: human, human liver microsomes, pH 7.4
[15] = as above; details: human, human liver microsomes, pH 7.4
[16] = system: dog liver microsomes (DLM); assay: GPC glucuronidation in dog liver microsomes (enzyme kinetics, species comparison); details: 30 min
[17] = system: glucuronidation (GPCG formation); assay: as above; details: Beagle, dog, dog liver microsomes, pH 7.4
[18] = as above; details: Beagle, dog, dog liver microsomes, pH 7.4
[19] = system: rabbit liver microsomes (RaLM); assay: GPC glucuronidation in rabbit liver microsomes (enzyme kinetics, species comparison); details: RaLMs 0.2 mg/mL, GPC 2–200 μM, 30 min, substrate inhibition fit
[20] = system: glucuronidation (GPCG formation); assay: as above; details: New Zealand, rabbit, rabbit liver microsomes, pH 7.4
[21] = as above; details: New Zealand, rabbit, rabbit liver microsomes, pH 7.4
recombinant human UGT1A4 = molecular target: T1, recombinant human UGT1A4 (Homo sapiens, UniProt P22310); assay: Recombinant human UGT enzyme assay of GPC glucuronidation, UGT1A4; type: in vitro ADME; details: recombinant UGT1A4 0.1 mg/mL, GPC 1 and 10 μM
T1 construct: purchased Cypex (Scotland, UK)
T1 sequence (P22310 29-534): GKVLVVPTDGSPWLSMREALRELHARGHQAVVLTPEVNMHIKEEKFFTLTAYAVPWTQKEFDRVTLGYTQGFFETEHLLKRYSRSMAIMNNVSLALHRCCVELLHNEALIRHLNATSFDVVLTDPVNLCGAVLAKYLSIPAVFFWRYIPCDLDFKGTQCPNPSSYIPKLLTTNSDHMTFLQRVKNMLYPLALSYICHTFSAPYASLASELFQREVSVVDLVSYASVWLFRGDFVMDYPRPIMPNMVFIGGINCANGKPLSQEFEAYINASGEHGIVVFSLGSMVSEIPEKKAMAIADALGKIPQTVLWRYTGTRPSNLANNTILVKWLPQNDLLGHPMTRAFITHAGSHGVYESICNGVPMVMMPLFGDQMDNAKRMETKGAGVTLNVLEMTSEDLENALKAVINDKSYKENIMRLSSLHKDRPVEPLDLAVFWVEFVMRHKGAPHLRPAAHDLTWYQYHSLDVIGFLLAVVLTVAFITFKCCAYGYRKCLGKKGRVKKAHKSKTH
Protocol: (§1) The glucuronidation incubation system consisted of Tris-HCl buffer (50 mM, pH = 7.4), magnesium chloride (4 mM), alamethicin (12.5 μg/mL), human liver microsomes (0.5 mg/mL), UDPGA (100 mM), and GPC (20 μM).
(§2) The glucuronidation metabolic activity of GPC at two concentration levels (1 and 10 μM) was determined using an incubation system with 10 recombinant human UGT enzymes (UGT1A1, 1A3, 1A4, 1A6, 1A7, 1A8, 1A9, 1A10, 2B7, 2B17) (0.1 mg/mL). The incubation conditions were the same as in Section 4.3, except for the protein concentration of 0.1 mg/mL. Lastly, metabolites were detected using LC–MS/MS.

[22] = system: glucuronidation (GPCG formation); assay: GPC glucuronidation in bovine liver microsomes (enzyme kinetics, species comparison); details: bovine, bovine liver microsomes, pH 7.4
[23] = as above; details: bovine, bovine liver microsomes, pH 7.4
[24] = system: bovine liver microsomes (BLM); assay: as above; details: 30 min
[25] = system: recombinant human UGT1A1, 1A3, 1A6, 1A7, 1A8, 1A9, 1A10, 2B7, and 2B17; assay: Recombinant human UGT enzyme assay of GPC glucuronidation, remaining isoenzymes; type: in vitro ADME; details: remaining recombinant UGT isoenzymes 0.1 mg/mL, GPC 1 and 10 μM
Protocol: as §1, §2

GPC glucuronidation = assay: Chemical inhibition of GPC glucuronidation in human liver microsomes; details: human, pH 7.4
Protocol: (§3) The glucuronidation incubation system consisted of Tris-HCl buffer (50 mM, pH = 7.4), magnesium chloride (4 mM), alamethicin (12.5 μg/mL), human liver microsomes (0.5 mg/mL), UDPGA (100 mM), and GPC (20 μM). […] The incubation system was first preincubated at 37 °C for 3 min before adding UDPGA to initiate the reaction. The reaction was terminated […] with the addition of an equal volume of iced acetonitrile (containing 30 μM PPT). After vortexing for 3 min, the supernatant obtained was centrifuged at 14,300 rpm for 15 min at 4 °C and used for LC–MS/MS analysis.
(§4) Glucuronidation metabolism of GPC in HLMs was inhibited using hecogenin, phenylbutazone, fluconazole, and magnolol. The concentrations of the four inhibitors were set to 1, 10, 50, and 200 μM, and the concentration of GPC was set to 15 μM. The incubation time and protein concentration were […], respectively. All the rest of the incubation conditions were as in Section 4.3. The incubation without inhibitor but with the same volume of DMSO was set to be the solvent control.

[26] = system: GPC glucuronidation in human liver microsomes; assay: as above; details: GPC 15 μM, HLMs 0.2 mg/mL, 30 min
Protocol: as §3, §4

[27] = inhibitor 1, 10, 50, and 200 μM

For `CC(C)=C1CC=C([C@H]2CC[C@]3(C)[C@@H]2CC[C@@H]2[C@@]4(C)CC[C@H](O)C(C)(C)[C@@H]4CC[C@]23C)C1=O` [GPC, Gypensapogenin C], the Km at 30 min [1] was 10 ± 2.1 µM, the microsomal CLint [2] was 690 µL/min/mg and the Vmax [3] was 6.93 ± 0.69 nmol/min/mg. For the same compound, the Vmax ([4]; RLMs 0.2 mg/mL, GPC 2–200 μM, substrate inhibition fit) was 3.80 ± 3.01 nmol/min/mg, the “GPC glucuronidation product generation (semiquantitative, peak area ratio)” value ([4]; rat liver microsomes 0.2 mg/mL, GPC 10 and 50 μM) was “Trace amounts” and the Km at 30 min [5] was 94.1 ± 89.8 µM. The microsomal CLint [6] was 40 µL/min/mg, the Km at 30 min [7] was 107 ± 73.2 µM and the microsomal CLint [8] was 77 µL/min/mg. For the same compound, the Vmax ([9]; MkLMs 0.2 mg/mL, GPC 2–200 μM, substrate inhibition fit) was 8.29 ± 4.69 nmol/min/mg, the “GPC glucuronidation product generation (semiquantitative, peak area ratio)” value ([9]; monkey liver microsomes 0.2 mg/mL, GPC 10 and 50 μM) was “Trace amounts” and the Vmax ([10]; PLMs 0.2 mg/mL, GPC 2–200 μM, substrate inhibition fit) was 1.41 ± 0.18 nmol/min/mg. For the same compound, the “GPC glucuronidation product generation (semiquantitative, peak area ratio)” value ([10]; pig liver microsomes 0.2 mg/mL, GPC 10 and 50 μM) was “Trace amounts”, the Km at 30 min [11] was 9.58 ± 2.32 µM and the microsomal CLint [12] was 147 µL/min/mg. For the same compound, the Vmax ([13]; HLMs 0.2 mg/mL, GPC 2–200 μM, substrate inhibition fit) was 0.42 ± 0.09 nmol/min/mg, the “GPC glucuronidation product generation (semiquantitative, peak area ratio)” value ([13]; human liver microsomes 0.2 mg/mL, GPC 10 and 50 μM) was “Trace amounts” and the Km at 30 min [14] was 15.4 ± 5.26 µM. For the same compound, the microsomal CLint [15] was 27 µL/min/mg, the Vmax ([16]; DLMs 0.2 mg/mL, GPC 2–200 μM, substrate inhibition fit) was 20.28 ± 2.57 nmol/min/mg and the “GPC glucuronidation product generation (semiquantitative, peak area ratio)” value ([16]; dog liver microsomes 0.2 mg/mL, GPC 10 and 50 μM) was “highest amounts”. The Km at 30 min [17] was 9.56 ± 2.83 µM, the microsomal CLint [18] was 2120 µL/min/mg and the Vmax [19] was 4.92 ± 0.57 nmol/min/mg. For the same compound, the Km at 30 min [20] was 16.2 ± 3.77 µM, the microsomal CLint [21] was 304 µL/min/mg and the “catalytic activity for GPC glucuronidation” value (recombinant human UGT1A4) was “highest catalytic activity”. The Km at 30 min [22] was 12.2 ± 5.16 µM, the microsomal CLint [23] was 259 µL/min/mg and the Vmax ([24]; BLMs 0.2 mg/mL, GPC 2–200 μM, substrate inhibition fit) was 3.17 ± 0.89 nmol/min/mg. The “GPC glucuronidation product generation (semiquantitative, peak area ratio)” value ([24]; bovine liver microsomes 0.2 mg/mL, GPC 10 and 50 μM) was “Trace amounts” and the “catalytic activity for GPC glucuronidation” value [25] was “none of the remaining UGT isoenzymes showed activity”.

For `C=CCc1ccc(O)c(-c2cc(CC=C)ccc2O)c1` [Magnolol, magnolol], the inhibition at 30 min, 200 μM (GPC glucuronidation) was 50% and the “inhibition of GPC glucuronidation (in words)” value (from here on “inhibition … (in words)”) ([26]; inhibitor 1–50 μM) was “insignificant inhibition”.

For `OC(Cn1cncn1)(Cn1cncn1)c1ccc(F)cc1F` [fluconazole], the “inhibition … (in words)” value [26, 27] was “Neither fluconazole nor phenylbutazone inhibited”.

With `CCCCC1C(=O)N(c2ccccc2)N(c2ccccc2)C1=O` [phenylbutazone] the “inhibition … (in words)” value [26, 27] was “Neither fluconazole nor phenylbutazone inhibited”.

In the case of hecogenin, the “inhibition of GPC glucuronidation” value ([26]; inhibitor 1 μM) is reported as “more than 40%” and the “inhibition of GPC glucuronidation” value ([26]; inhibitor 10 μM) is reported as 70%.
